Results: article PMC4176827 (Molecular and biochemical parasitology, 2014)

How the values were obtained:
[1] = biological target: T1, CpDHS (Cryptosporidium parvum, UniProt A3FQA5); experiment: fluorescence of enzyme-bound NADH; type: biochemical; conditions: 100 µM spermidine, no eIF5A, 0.2 M glycine buffer pH 9.2
T1 sequence (A3FQA5 1-362): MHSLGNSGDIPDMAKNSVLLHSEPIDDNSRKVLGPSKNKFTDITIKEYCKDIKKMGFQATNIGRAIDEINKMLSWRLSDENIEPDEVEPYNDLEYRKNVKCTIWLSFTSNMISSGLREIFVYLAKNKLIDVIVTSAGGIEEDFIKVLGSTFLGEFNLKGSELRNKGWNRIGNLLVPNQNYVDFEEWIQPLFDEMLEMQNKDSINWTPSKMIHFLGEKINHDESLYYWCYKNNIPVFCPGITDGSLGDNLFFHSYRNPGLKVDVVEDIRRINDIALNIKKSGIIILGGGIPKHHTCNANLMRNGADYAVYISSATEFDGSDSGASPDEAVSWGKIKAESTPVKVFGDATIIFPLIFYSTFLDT

[2] = biological target: T1, CpDHS; experiment: radiometric deoxyhypusine synthase assay; type: biochemical; conditions: read-out: % inhibition at 1 μM

| Structure (SMILES) | fluorescence of enzyme-bound NADH (excitation 340 nm, emission 441 nm) [1] | inhibition at 1 µM [2] [%] |
| --- | --- | --- |
| NC(=O)c1ccc[n+]([C@@H]2O[C@H](COP(=O)(O)OP(=O)(O)OC[C@H]3O[C@@H](n4cnc5c(N)ncnc54)[C@H](O)[C@@H]3O)[C@@H](O)[C@H]2O)c1 [NAD^+] | both spermidine and NAD^+ are required for NADH fluorescence |  |
| N=C(N)NCCCCCCCN [GC7, N^1-guanyl-1,7-diaminoheptane] |  | > 90 |
